Legend:
Details in all cases: incubation time: 72 h
[1] = test system: CAL-120; experiment: normalised viability (% of control), CellTiter-Blue; higher = more viable cells (about 100 = DMSO control)
Outline: (§1)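 Each entry is normalised viability at a single listed concentration within a series. It comes from breast cancer cell lines incubated 72 h with compound in 384-well plates, then measured with CellTiter-Blue fluorescence at 560/590 nm. Every plate was normalised between vehicle (100) and a positive kill control (0).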

[2] = test system: CAL-51; experiment: as above
Outline: as §1

[3] = test system: CAL-85-1; experiment: as above
Outline: as §1

[4] = test system: DU-4475; experiment: as above
Outline: as §1

[5] = test system: HCC1937; experiment: as above
Outline: as §1

[6] = test system: Hs578T; experiment: as above
Outline: as §1

[7] = test system: MDA-MB-231; experiment: as above
Outline: as §1

[8] = test system: MDA-MB-468; experiment: as above
Outline: as §1

[9] = test system: MFM-223; experiment: as above
Outline: as §1

[10] = test system: BT-474; experiment: drug sensitivity score (DSS), CellTiter-Glo (DSS (AUC-based score)); higher = stronger drug effect (viability inhibition or cytotoxicity); extreme values may be limits of the assay
Outline: (§2)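 Breast cancer cell lines, seeded as 20 µl suspension, were incubated 72 h with compound in 384-well plates at 5 concentrations in 10-fold steps over a 10,000-fold range set for each compound. Fluorescence from CellTox Green was read at 485/520 nm before CellTiter-Glo luminescence, which was read after 10 min at room temperature. Every plate was normalised to 0.1 % DMSO and a positive kill control, and the drug sensitivity score was taken from the area under the fitted dose-response curve.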

[11] = test system: BT-549; experiment: as above
Outline: as §2

[12] = test system: CAL-120; experiment: as above
Outline: as §2

[13] = test system: CAL-148; experiment: as above
Outline: as §2

[14] = test system: CAL-51; experiment: as above
Outline: as §2

[15] = test system: CAL-85-1; experiment: as above
Outline: as §2

[16] = test system: HCC1143; experiment: as above
Outline: as §2

[17] = test system: HCC1599; experiment: as above
Outline: as §2

[18] = test system: HCC1937; experiment: as above
Outline: as §2

[19] = test system: Hs578T; experiment: as above
Outline: as §2

[20] = test system: MCF-10A; experiment: as above
Outline: as §2

[21] = test system: MDA-MB-231; experiment: as above
Outline: as §2

[22] = test system: MDA-MB-436; experiment: as above
Outline: as §2

[23] = test system: MDA-MB-453; experiment: as above
Outline: as §2

[24] = test system: MFM-223; experiment: as above
Outline: as §2

[25] = test system: SK-BR-3; experiment: as above
Outline: as §2

CNC(=O)c1ccccc1Sc1ccc2c(/C=C/c3ccccn3)n[nH]c2c1 [Axitinib]
normalised viability [%]
Details | [1] | [2] | [3] | [4] | [5] | [6] | [7] | [8] | [9]
3 nM | – | 107 | 93 | 107 | – | – | – | – | –
10 nM | 91.2 | – | – | – | 41.1 | 92.1 | 102 | 108 | 86.7
30 nM | – | 102 | 84 | 114 | – | – | – | – | –
100 nM | – | 98.2 | 104 | 97 | – | – | – | – | –
1000 nM | 94.7 | – | – | – | 81.8 | 93 | 88.7 | 99.4 | 47.6
10000 nM | 55.2 | – | – | – | 42.6 | 54.2 | 72.1 | 43.8 | 47.7

Details | drug sensitivity score
[10] | 0
[11] | 1.06
[12] | 1.6
[13] | 0
[14] | 9.31
[15] | 0
[16] | 0
[17] | 2.21
[18] | 0
[19] | 0
[20] | 0
[21] | 0
[22] | 1.91
[23] | 0
[24] | 8.4
[25] | 0

C/C(=C\c1csc(C)n1)[C@@H]1C[C@@H]2O[C@]2(C)CCC[C@H](C)[C@H](O)[C@@H](C)C(=O)C(C)(C)[C@@H](O)CC(=O)N1 [Ixabepilone]
normalised viability [%]
Details | [1] | [2] | [3] | [4] | [5] | [6] | [7] | [8] | [9]
0.3 nM | – | 110 | 83.4 | 95.4 | – | – | – | – | –
1 nM | 75.6 | – | – | – | 87.5 | 107 | 84.7 | 97.8 | 76.8
3 nM | – | 107 | 87.8 | 77 | – | – | – | – | –
10 nM | – | 107 | 88.9 | 92.4 | – | – | – | – | –
100 nM | 78.3 | – | – | – | 89.1 | 98.8 | 51.6 | 88.5 | 75.8
1000 nM | 50.4 | – | – | – | 17.2 | 25 | 16.8 | 45.4 | 31.6

Details | drug sensitivity score
[10] | 1.23
[11] | 13.9
[12] | 0
[13] | 0
[14] | 14.8
[15] | 2.2
[16] | 0
[17] | 0
[18] | 0
[19] | 0
[20] | 0
[21] | 0
[22] | 0
[23] | 0
[24] | 0
[25] | 0
